Test results from patent US4777049A, “Constant release system with pulsed release” (priority 1987, dated 1988).
Converted amounts (≈) assume the structure as drawn. Where two headings read alike, the source gives them in different places. One block for each molecule: values may come before it.

Assays:
[1] = cited from earlier work
gonadotropin secretion = settings: Drugs, Vol. 23, 207-226, 1982, cited from earlier work

Molecule: C[C@H]1C[C@@H]2[C@H]([C@@H](O)C[C@@]3(C)[C@H]2CC[C@]3(O)C(=O)CO)[C@@]2(C)C=CC(=O)C=C12 [methylprednisolone]
- medical effect of pulsed treatment ([1]; collagenic and progressing glomerulonephritis): beneficial medical effect

Molecule: insulin
- medical effect of pulsed treatment ([1]; control of hyperglycemia): beneficial medical effect

Molecule: CC[C@H](C)[C@@H]1NC(=O)[C@H](Cc2ccc(O)cc2)NC(=O)[C@@H](N)CSSC[C@@H](C(=O)N2CCC[C@H]2C(=O)N[C@@H](CC(C)C)C(=O)NCC(N)=O)NC(=O)[C@H](CC(N)=O)NC(=O)[C@H](CCC(N)=O)NC1=O [oxytocin]
- medical effect of pulsed treatment ([1]; induction of labor): beneficial medical effect

Molecule: CO[C@H]1/C=C/O[C@@]2(C)Oc3c(C)c(O)c4c(O)c(c(/C=N/N5CCN(C)CC5)c(O)c4c3C2=O)NC(=O)/C(C)=C\C=C\[C@H](C)[C@H](O)[C@@H](C)[C@@H](O)[C@@H](C)[C@H](OC(C)=O)[C@@H]1C [rifampicin]
- medical effect of pulsed treatment ([1]; leprosy): beneficial medical effect

Molecule: C[C@]12CC[C@@H]3c4ccc(O)cc4CC[C@H]3[C@@H]1CC[C@@H]2O [estradiol]
- effect on gonadotropin secretion (gonadotropin secretion; high pulsed doses): stimulates the ovulating surge
- effect on gonadotropin secretion (gonadotropin secretion; low pulsed dose): inhibits

- solubility (physchem; distilled water, water): 275 mg/mL (≈ 1150 mM)
- solubility (physchem; saturated sodium chloride solution): 16 mg/mL (≈ 66.9 mM)
Molecule: CC(C)(C)NCC(O)c1ccc(O)c(CO)c1 (centres unmarked) [salbutamol]
